Reference: ChEMBL document CHEMBL1781885, “Cytotoxic norsesquiterpene peroxides from the endophytic fungus Talaromyces flavus isolated from the mangrove plant Sonneratia apetala” (J Nat Prod, 2011)
≈ marks a conversion by molar mass, not a printed value. Calls of active or inactive are those of the source. The rule behind the calls is not given here.

Legend:
[1] = tested on: MDA-MB-435; experiment: Cytotoxicity against human MDA-MB-435 after 6 days by MTT method; type: functional, cell-based; details: MDA-MB-435, 144 h
[2] = tested on: HepG2; experiment: Cytotoxicity against human HepG2 after 6 days by MTT method; type: functional, cell-based; details: HepG2, 144 h
[3] = tested on: PC-3; experiment: Cytotoxicity against human PC3 cells after 6 days by MTT method; type: functional, cell-based; details: PC-3, 144 h
[4] = tested on: MCF7; experiment: Cytotoxicity against human MCF7 cells after 6 days by MTT method; type: functional, cell-based; details: MCF7, 144 h
[5] = tested on: Artemia salina; experiment: Toxicity in Artemia salina; type: organism-based; details: in vivo
[6] = tested on: Aspergillus niger; experiment: Antimicrobial activity against Aspergillus niger ATCC 13496 at 50 ug/ml; type: functional, organism-based
[7] = tested on: Escherichia coli; experiment: Antimicrobial activity against Escherichia coli ATCC 25922 at 50 ug/ml; type: functional, organism-based
[8] = tested on: Candida albicans; experiment: Antimicrobial activity against Candida albicans ATCC 10231 at 50 ug/ml; type: functional, organism-based
[9] = tested on: Pseudomonas aeruginosa; experiment: Antimicrobial activity against Pseudomonas aeruginosa ATCC 25668 at 50 ug/ml; type: functional, organism-based
[10] = tested on: HeLa; experiment: Cytotoxicity against human HeLa cells after 6 days by MTT method; type: functional, cell-based; details: 144 h
[11] = tested on: Staphylococcus aureus; experiment: Antimicrobial activity against Staphylococcus aureus ATCC 27154 at 50 ug/ml; type: functional, organism-based
[12] = tested on: Sarcina ventriculi; experiment: Antimicrobial activity against Sarcina ventriculi ATCC 29068 at 50 ug/ml; type: functional

Row | SMILES | IC50 [1] | IC50 [2] | IC50 [3] | IC50 [4] | LD50 [5] | Activity [6] | Activity [7] | Activity [8] | Activity [9] | IC50 [10] | Activity [11] | Activity [12]
1 | COc1cccc2c1C(=O)c1c(O)c3c(c(O)c1C2=O)C[C@@](O)(C(=O)CO)C[C@@H]3O[C@H]1C[C@H](N)[C@@H](O)[C@H](C)O1 [EPIRUBICIN] | 0.33 µg/mL (≈ 0.607 µM) | 0.56 µg/mL (≈ 1.03 µM) | 0.16 µg/mL (≈ 0.294 µM) | 0.56 µg/mL (≈ 1.03 µM) | – | – | – | – | – | – | – | –
2 | CC1(C)CCC(=O)[C@@]2(C)OO[C@@H]3C[C@@]12CC[C@H]3O [MERULIN A] | 1.9 µg/mL (≈ 7.47 µM) | 6.79 µg/mL (≈ 26.7 µM) | 1.82 µg/mL (≈ 7.16 µM) | 4.17 µg/mL (≈ 16.4 µM) | < 10 ppm | inactive | inactive | inactive | inactive | 7.97 µg/mL (≈ 31.3 µM) | inactive | inactive
3 | CC(=O)O[C@H]1CC[C@]23C[C@@H]1OO[C@]2(C)C(=O)CCC3(C)C [TALAPEROXIDE A] | 11.8 µg/mL (≈ 39.7 µM) | 12.9 µg/mL (≈ 43.6 µM) | 5.7 µg/mL (≈ 19.2 µM) | 19.8 µg/mL (≈ 66.7 µM) | < 10 ppm | inactive | inactive | inactive | inactive | 13.7 µg/mL (≈ 46.2 µM) | inactive | inactive
4 | CC(=O)O[C@H]1CC[C@]23C[C@@H]1OO[C@@]2(C)C(=O)CCC3(C)C [TALAPEROXIDE B] | 2.78 µg/mL (≈ 9.38 µM) | 1.29 µg/mL (≈ 4.35 µM) | 0.89 µg/mL (≈ 3 µM) | 1.33 µg/mL (≈ 4.49 µM) | < 10 ppm | inactive | inactive | inactive | inactive | 1.73 µg/mL (≈ 5.84 µM) | inactive | inactive
5 | CC1(C)CCC(=O)[C@@]2(C)OO[C@H]3C[C@]12CCC3=O [TALAPEROXIDE C] | 2.64 µg/mL (≈ 10.5 µM) | 15.1 µg/mL (≈ 59.9 µM) | 4.34 µg/mL (≈ 17.2 µM) | 6.63 µg/mL (≈ 26.3 µM) | < 10 ppm | inactive | inactive | inactive | inactive | 12.7 µg/mL (≈ 50.4 µM) | inactive | inactive
6 | CC1(C)CCC(=O)[C@]2(C)OO[C@H]3C[C@]12CCC3=O [TALAPEROXIDE D] | 0.91 µg/mL (≈ 3.61 µM) | 0.9 µg/mL (≈ 3.57 µM) | 0.7 µg/mL (≈ 2.77 µM) | 1.92 µg/mL (≈ 7.61 µM) | < 10 ppm | inactive | inactive | inactive | inactive | 1.31 µg/mL (≈ 5.19 µM) | inactive | inactive
